Measurements: US10906873B2, “Substituted cyclic amides as herbicides” (FMC Corporation, priority 2015, dated 2021)

What was measured:
Type in all cases: in vivo
[1] = test system: barnyardgrass (Echinochloa crus-galli); test: Test A preemergence, barnyardgrass; conditions: 0 to 100 scale
Method in brief: (§1)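 Seeds sown in loam–sand blend received a directed soil spray preemergence; postemergence plants (2–10 cm, one- to two-leaf stage) were sprayed with test chemicals in non-phytotoxic solvent with surfactant. After about 10 d in greenhouse, injury was scored visually versus untreated controls, 0 (no effect) to 100 (complete control).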

kochia (Kochia scoparia) [2] = test: Test A preemergence, kochia; conditions: 0 to 100 scale
Method in brief: as §1

[3] = test system: ragweed (common ragweed, Ambrosia elatior); test: Test A preemergence, ragweed; conditions: 0 to 100 scale
Method in brief: as §1

[4] = test system: ryegrass, It. (Italian ryegrass, Lolium multiflorum); test: Test A preemergence, ryegrass, It.; conditions: 0 to 100 scale
Method in brief: as §1

[5] = test system: foxtail, giant (giant foxtail, Setaria faberii); test: Test A preemergence, foxtail, giant; conditions: 0 to 100 scale
Method in brief: as §1

[6] = test system: pigweed (Amaranthus retroflexus); test: Test A preemergence, pigweed; conditions: 0 to 100 scale
Method in brief: as §1

[7] = test system: barnyardgrass (Echinochloa crus-galli); test: Test A postemergence, barnyardgrass; conditions: 0 to 100 scale
Method in brief: as §1

kochia (Kochia scoparia) [8] = test: Test A postemergence, kochia; conditions: 0 to 100 scale
Method in brief: as §1

[9] = test system: ragweed (common ragweed, Ambrosia elatior); test: Test A postemergence, ragweed; conditions: 0 to 100 scale
Method in brief: as §1

[10] = test system: ryegrass, It. (Italian ryegrass, Lolium multiflorum); test: Test A postemergence, ryegrass, It.; conditions: 0 to 100 scale
Method in brief: as §1

[11] = test system: foxtail, giant (giant foxtail, Setaria faberii); test: Test A postemergence, foxtail, giant; conditions: 0 to 100 scale
Method in brief: as §1

[12] = test system: wheat (Triticum aestivum); test: Test A postemergence, wheat; conditions: 0 to 100 scale
Method in brief: as §1

corn (Zea mays) = test: Test A postemergence, corn; conditions: 0 to 100 scale
Method in brief: as §1

[13] = test system: pigweed (Amaranthus retroflexus); test: Test A postemergence, pigweed; conditions: 0 to 100 scale
Method in brief: as §1

[14] = test system: blackgrass (Alopecurus myosuroides); test: Test A postemergence, blackgrass; conditions: 0 to 100 scale
Method in brief: as §1

[15] = test system: galium (catchweed bedstraw, Galium aparine); test: Test A postemergence, galium; conditions: 0 to 100 scale
Method in brief: as §1

[16] = test system: barnyardgrass (Echinochloa crus-galli); test: Test B flooded paddy test, barnyardgrass; conditions: Flood, scale of 0 to 100 where 0 is no effect and 100 is complete control, 13 to 15 d
Method in brief: (§2)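 Plants at the 2-leaf stage were flooded to 3 cm above soil, and test compounds were applied directly into the paddy water, which was held at that depth throughout. After 13 to 15 d in a greenhouse, injury was rated visually against untreated controls on a 0–100 scale (0 no effect, 100 complete control).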

[17] = test system: ducksalad (Heteranthera limosa); test: Test B flooded paddy test, ducksalad; conditions: Flood, scale of 0 to 100 where 0 is no effect and 100 is complete control, 13 to 15 d
Method in brief: as §2

rice (Oryza sativa) = test: Test B flooded paddy test, rice; conditions: Flood, scale of 0 to 100 where 0 is no effect and 100 is complete control, 13 to 15 d
Method in brief: as §2

[18] = test system: sedge, umbrella (small-flower umbrella sedge, Cyperus difformis); test: Test B flooded paddy test, sedge, umbrella; conditions: Flood, scale of 0 to 100 where 0 is no effect and 100 is complete control, 13 to 15 d
Method in brief: as §2

Row | Compound | Plant response rating, Barnyardgrass ([1]; 125 g ai/ha) | Plant response rating, Barnyardgrass ([1]; 500 g ai/ha) | Plant response rating, Kochia (kochia (Kochia scoparia) [2]; 125 g ai/ha) | Plant response rating, Kochia (kochia (Kochia scoparia) [2]; 500 g ai/ha) | Plant response rating, Ragweed ([3]; 125 g ai/ha) | Plant response rating, Ragweed ([3]; 500 g ai/ha) | Plant response rating, Ryegrass, It. ([4]; 125 g ai/ha) | Plant response rating, Ryegrass, It. ([4]; 500 g ai/ha) | Plant response rating, Foxtail, Giant ([5]; 125 g ai/ha) | Plant response rating, Foxtail, Giant ([5]; 500 g ai/ha) | Plant response rating, Pigweed ([6]; 125 g ai/ha) | Plant response rating, Pigweed ([6]; 500 g ai/ha) | Plant response rating, Barnyardgrass ([7]; 125 g ai/ha) | Plant response rating, Barnyardgrass ([7]; 500 g ai/ha) | Plant response rating, Kochia (kochia (Kochia scoparia) [8]; 125 g ai/ha) | Plant response rating, Kochia (kochia (Kochia scoparia) [8]; 500 g ai/ha) | Plant response rating, Ragweed ([9]; 125 g ai/ha) | Plant response rating, Ragweed ([9]; 500 g ai/ha) | Plant response rating, Ryegrass, It. ([10]; 125 g ai/ha) | Plant response rating, Ryegrass, It. ([10]; 500 g ai/ha) | also measured
1 | O=C1NCC(CCc2ccccc2)C1C(=O)Nc1ccccc1F (stereo not drawn) [Compound 20] | 0 | 0 | 0 | 0 | 0 | 0 | 0 | 0 | 0 | 0 | 0 | 0 | 0 | 0 | 0 | 0 | 0 | 0 | 0 | 0 | Plant response rating, Foxtail, Giant ([11]; 125 g ai/ha): 0; Plant response rating, Foxtail, Giant ([11]; 500 g ai/ha): 0; Plant response rating, Wheat ([12]; 125 g ai/ha): 0; Plant response rating, Wheat ([12]; 500 g ai/ha): 0; Plant response rating, Corn (corn (Zea mays); 125 g ai/ha): 0; Plant response rating, Corn (corn (Zea mays); 500 g ai/ha): 0; Plant response rating, Pigweed ([13]; 125 g ai/ha): 0; Plant response rating, Pigweed ([13]; 500 g ai/ha): 0; Plant response rating, Blackgrass ([14]; 125 g ai/ha): 0; Plant response rating, Blackgrass ([14]; 500 g ai/ha): 0; Plant response rating, Galium ([15]; 125 g ai/ha): 0; Plant response rating, Galium ([15]; 500 g ai/ha): 0; Plant response rating, Barnyardgrass ([16]; 250 g ai/ha): 0; Plant response rating, Ducksalad ([17]; 250 g ai/ha): 50; Plant response rating, Rice (rice (Oryza sativa); 250 g ai/ha): 0; Plant response rating, Sedge, Umbrella ([18]; 250 g ai/ha): 0
2 | O=C1NCC(/C=C/c2ccc(F)cc2)C1C(=O)Nc1cccc(F)c1F (stereo not drawn) [Compound 31] | 0 | 70 | 0 | 20 | 0 | 0 | 0 | 0 | 20 | 70 | 0 | 0 | 30 | 70 | 0 | 30 | 0 | 20 | 0 | 20 | Plant response rating, Foxtail, Giant ([11]; 125 g ai/ha): 30; Plant response rating, Foxtail, Giant ([11]; 500 g ai/ha): 60; Plant response rating, Wheat ([12]; 125 g ai/ha): 0; Plant response rating, Wheat ([12]; 500 g ai/ha): 0; Plant response rating, Corn (corn (Zea mays); 125 g ai/ha): 0; Plant response rating, Corn (corn (Zea mays); 500 g ai/ha): 20; Plant response rating, Pigweed ([13]; 125 g ai/ha): 0; Plant response rating, Pigweed ([13]; 500 g ai/ha): 0; Plant response rating, Blackgrass ([14]; 125 g ai/ha): 0; Plant response rating, Blackgrass ([14]; 500 g ai/ha): 0; Plant response rating, Galium ([15]; 125 g ai/ha): 0; Plant response rating, Galium ([15]; 500 g ai/ha): 30; Plant response rating, Barnyardgrass ([16]; 250 g ai/ha): 40; Plant response rating, Ducksalad ([17]; 250 g ai/ha): 80; Plant response rating, Rice (rice (Oryza sativa); 250 g ai/ha): 15; Plant response rating, Sedge, Umbrella ([18]; 250 g ai/ha): 50
3 | O=C1NCC(Cc2ccc(C(F)(F)F)cc2)C1C(=O)Nc1ccccc1C(F)(F)F (stereo not drawn) [Compound 6] | 0 | 0 | 0 | 0 | 0 | 0 | 0 | 0 | 0 | 0 | 0 | 0 | 0 | 0 | 0 | 0 | 0 | 0 | 0 | 0 | Plant response rating, Foxtail, Giant ([11]; 125 g ai/ha): 0; Plant response rating, Foxtail, Giant ([11]; 500 g ai/ha): 0; Plant response rating, Wheat ([12]; 125 g ai/ha): 0; Plant response rating, Wheat ([12]; 500 g ai/ha): 0; Plant response rating, Corn (corn (Zea mays); 125 g ai/ha): 0; Plant response rating, Corn (corn (Zea mays); 500 g ai/ha): 0; Plant response rating, Pigweed ([13]; 125 g ai/ha): 0; Plant response rating, Pigweed ([13]; 500 g ai/ha): 0; Plant response rating, Blackgrass ([14]; 125 g ai/ha): 0; Plant response rating, Blackgrass ([14]; 500 g ai/ha): 0; Plant response rating, Galium ([15]; 125 g ai/ha): 0; Plant response rating, Galium ([15]; 500 g ai/ha): 0; Plant response rating, Barnyardgrass ([16]; 500 g ai/ha): 0; Plant response rating, Ducksalad ([17]; 500 g ai/ha): 0; Plant response rating, Rice (rice (Oryza sativa); 500 g ai/ha): 0; Plant response rating, Sedge, Umbrella ([18]; 500 g ai/ha): 0
